As a reminder, the pIC50 is −log10 of the IC50, conventionally taken in molar units.

pIC50: −log10 of the molar value. Bounds are passed on as bounds.

In the experiment the target is T1, hTSHR (Homo sapiens, UniProt P16473).
T1 construct: expressed in transfected cells
T1 sequence (P16473 21-764): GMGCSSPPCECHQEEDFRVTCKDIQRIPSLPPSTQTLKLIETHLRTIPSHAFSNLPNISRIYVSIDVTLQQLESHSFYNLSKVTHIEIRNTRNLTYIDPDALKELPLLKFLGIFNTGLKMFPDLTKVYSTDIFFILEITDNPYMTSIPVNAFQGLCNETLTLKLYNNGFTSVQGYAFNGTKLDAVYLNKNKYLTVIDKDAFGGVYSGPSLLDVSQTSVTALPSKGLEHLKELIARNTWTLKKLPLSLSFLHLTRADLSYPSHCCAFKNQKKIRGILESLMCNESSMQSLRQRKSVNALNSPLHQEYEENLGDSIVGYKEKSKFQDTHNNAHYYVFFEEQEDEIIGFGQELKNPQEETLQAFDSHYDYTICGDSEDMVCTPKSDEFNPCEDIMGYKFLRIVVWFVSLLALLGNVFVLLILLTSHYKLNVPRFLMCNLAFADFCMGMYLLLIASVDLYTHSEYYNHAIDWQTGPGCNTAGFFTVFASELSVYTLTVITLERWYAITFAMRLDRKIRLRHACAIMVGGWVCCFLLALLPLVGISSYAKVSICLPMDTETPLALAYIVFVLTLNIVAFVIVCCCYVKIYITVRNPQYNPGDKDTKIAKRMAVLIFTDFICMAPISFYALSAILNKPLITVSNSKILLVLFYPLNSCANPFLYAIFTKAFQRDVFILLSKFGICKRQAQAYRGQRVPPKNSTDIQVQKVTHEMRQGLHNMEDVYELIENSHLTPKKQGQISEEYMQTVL
Put plainly: hTSHR TR-FRET cAMP Assay (inhibition of M22-stimulated cAMP production). The experiment is classed as cell-based. Particulars: Expi293F Inducible cells stably expressing hTSHR; cAMP HTRF; stimulated with EC80 of anti-TSHR antibody M22; 15 min compound preincubation, 30 min at 37° C.; read-out: Activity (IC50 bins). The gist of the method: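 Readout was a cAMP HTRF ratio of 655/620 nm after lysis, scaled between the EC80 M22 signal (0% inhibition) and no-agonist vehicle (100%). Frozen induced Expi293F-hTSHR cells saw test compounds (0.5% DMSO) for 15 min at 37 °C before 30 min of M22 stimulation at EC80.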
(In TR-FRET formats the signal depends on donor and acceptor labels being close together.)
Turning to `C[C@@H](c1cccc(OCC(F)(F)F)c1)n1c(=O)cnc2cc(NC(=O)NC(C)(C)C)ccc21` [Example 313, (S)-1-(tert-butyl)-3-(2-oxo-1-(1-(3-(2,2,2-trifluoroethoxy)phenyl)ethyl)-1,2-dihydroquinoxalin-6-yl)urea], the pIC50 is less than 6.00.

As to `C[C@H](c1cccc(OCC(F)(F)F)c1)n1c(=O)cnc2cc(NC(=O)NC(C)(C)C)ccc21` [Example 314, (R)-1-(tert-butyl)-3-(2-oxo-1-(1-(3-(2,2,2-trifluoroethoxy)phenyl)ethyl)-1,2-dihydroquinoxalin-6-yl)urea], the pIC50 was 6.00 to 7.00.

For the molecule `C[C@@H](c1cccc(OC(F)(F)F)c1)n1c(=O)cnc2cc(NC(=O)C3CCCC3)ccc21` [Example 315, (S)—N-(2-oxo-1-(1-(3-(trifluoromethoxy)phenyl)ethyl)-1,2-dihydroquinoxalin-6-yl)cyclopentanecarboxamide], the pIC50 is 6.00 to 7.00.

`C[C@H]1Oc2cc(NC(=O)NC(C)(C)C)ccc2N([C@@H](C)c2nccc(C(F)(F)F)n2)C1=O` [Example 316, 1-(tert-butyl)-3-((R)-2-methyl-3-oxo-4-((S)-1-(4-(trifluoromethyl)pyrimidin-2-yl)ethyl)-3,4-dihydro-2H-benzo[b][1,4]oxazin-7-yl)urea]: the pIC50 is less than 6.00.

For `C[C@H](c1nccc(C(F)(F)F)n1)N1C(=O)[C@@H](C)Oc2cc(NC(=O)NC(C)(C)C)ccc21` [Example 317, 1-(tert-butyl)-3-((R)-2-methyl-3-oxo-4-((R)-1-(4-(trifluoromethyl)pyrimidin-2-yl)ethyl)-3,4-dihydro-2H-benzo[b][1,4]oxazin-7-yl)urea], the pIC50 was 6.00 to 7.00.

Turning to `C[C@@H](c1cccc(OC(F)(F)F)n1)n1c(=O)cnc2cc(NC(=O)CCc3cccc(C(F)(F)F)c3)ccc21` [Example 318, (S)—N-(2-oxo-1-(1-(6-(trifluoromethoxy)pyridin-2-yl)ethyl)-1,2-dihydroquinoxalin-6-yl)-3-(3-(trifluoromethyl)phenyl)propanamide], the pIC50 was 6.00 to 7.00.

In the case of `C[C@@H](c1cccc(Cl)c1)n1c(=O)cnc2cc(NC(=O)NC3(C)CCC3)ccc21` [Example 319, (S)-1-(1-(1-(3-chlorophenyl)ethyl)-2-oxo-1,2-dihydroquinoxalin-6-yl)-3-(1-methylcyclobutyl)urea], the negative logarithm of the IC50 (pIC50) is 6.00 to 7.00.

For the molecule `C[C@@H](c1cccc(C(F)(F)F)c1)n1c(=O)cnc2cc(NC(=O)NC3(C)CCC3)ccc21` [Example 320, (S)-1-(1-methylcyclobutyl)-3-(2-oxo-1-(1-(3-(trifluoromethyl)phenyl)ethyl)-1,2-dihydroquinoxalin-6-yl)urea], the pIC50 is 6.00 to 7.00.

For the molecule `C[C@H]1Oc2cc(NC(=O)NC3(C)CCCC3)ccc2N(Cc2cccc(OC(F)(F)F)n2)C1=O` [Example 321, (R)-1-(2-methyl-3-oxo-4-((6-(trifluoromethoxy)pyridin-2-yl)methyl)-3,4-dihydro-2H-benzo[b][1,4]oxazin-7-yl)-3-(1-methylcyclopentyl)urea], the pIC50 is greater than 7.00.

On to `C[C@H]1Oc2cc(NC(=O)NC3(C)CCCC3)ccc2N([C@@H](C)c2cccc(C(F)(F)F)n2)C1=O` [Example 322, 1-((R)-2-methyl-3-oxo-4-((S)-1-(6-(trifluoromethyl)pyridin-2-yl)ethyl)-3,4-dihydro-2H-benzo[b][1,4]oxazin-7-yl)-3-(1-methylcyclopentyl)urea], for which the pIC50 is greater than 7.00.

Consider `C[C@H]1Oc2cc(NC(=O)NC3(C)CCCC3)ccc2N([C@@H](C)c2cccc(OC(F)(F)F)n2)C1=O` [Example 323, 1-((R)-2-methyl-3-oxo-4-((S)-1-(6-(trifluoromethoxy)pyridin-2-yl)ethyl)-3,4-dihydro-2H-benzo[b][1,4]oxazin-7-yl)-3-(1-methylcyclopentyl)urea], for which the pIC50 was greater than 7.00.

In the case of `C[C@H]1Oc2cc(NC(=O)N[C@H]3C[C@H](C(F)(F)F)C3)ccc2N([C@@H](C)c2cccc(OC(F)(F)F)c2)C1=O` [Example 324, 1-((R)-2-methyl-3-oxo-4-((S)-1-(3-(trifluoromethoxy)phenyl)ethyl)-3,4-dihydro-2H-benzo[b][1,4]oxazin-7-yl)-3-((1r,3R)-3-(trifluoromethyl)cyclobutyl)urea], the negative logarithm of the IC50 (pIC50) is 6.00 to 7.00.

Regarding `C[C@H]1Oc2cc(NC(=O)N[C@H]3C[C@@H](C(F)(F)F)C3)ccc2N([C@@H](C)c2cccc(OC(F)(F)F)c2)C1=O` [Example 325, 1-((R)-2-methyl-3-oxo-4-((S)-1-(3-(trifluoromethoxy)phenyl)ethyl)-3,4-dihydro-2H-benzo[b][1,4]oxazin-7-yl)-3-((1s,3S)-3-(trifluoromethyl)cyclobutyl)urea], the pIC50 is 6.00 to 7.00.

With `C[C@H]1Oc2cc(NC(=O)NC(C)(C)C)c(F)cc2N(Cc2ccccc2)C1=O` [Example 326, (R)-1-(4-benzyl-6-fluoro-2-methyl-3-oxo-3,4-dihydro-2H-benzo[b][1,4]oxazin-7-yl)-3-(tert-butyl)urea], the pIC50 was 6.00 to 7.00.

In the case of `C[C@H]1Oc2cc(NC(=O)NC(C)(C)C)c(F)cc2N(Cc2cccc(C(F)F)c2)C1=O` [Example 327, (R)-1-(tert-butyl)-3-(4-(3-(difluoromethyl)benzyl)-6-fluoro-2-methyl-3-oxo-3,4-dihydro-2H-benzo[b][1,4]oxazin-7-yl)urea], the pIC50 was greater than 7.00.

As to `C[C@H]1Oc2cc(NC(=O)NC(C)(C)C)c(F)cc2N([C@@H](C)c2ccccc2)C1=O` [Example 328, 1-(tert-butyl)-3-((R)-6-fluoro-2-methyl-3-oxo-4-((S)-1-phenylethyl)-3,4-dihydro-2H-benzo[b][1,4]oxazin-7-yl)urea], the pIC50 was 6.00 to 7.00.

Turning to `C[C@H]1Oc2c(cc(F)c(NC(=O)NC(C)(C)C)c2F)N(Cc2ccccc2)C1=O` [Example 329, (R)-1-(4-benzyl-6,8-difluoro-2-methyl-3-oxo-3,4-dihydro-2H-benzo[b][1,4]oxazin-7-yl)-3-(tert-butyl)urea], the pIC50 was 6.00 to 7.00.

In the case of `C[C@H]1Oc2cc(NC(=O)NC(C)(C)C)c(C(F)(F)F)cc2N(Cc2ccccc2)C1=O` [Example 330, (R)-1-(4-benzyl-2-methyl-3-oxo-6-(trifluoromethyl)-3,4-dihydro-2H-benzo[b][1,4]oxazin-7-yl)-3-(tert-butyl)urea], the negative-log IC50 (pIC50) was greater than 7.00.

On to `C[C@H](c1ccccc1)N1C(=O)[C@@H](C)Oc2cc(NC(=O)NC(C)(C)C)ccc21` [Example 331, 1-(tert-butyl)-3-((R)-2-methyl-3-oxo-4-((R)-1-phenylethyl)-3,4-dihydro-2H-benzo[b][1,4]oxazin-7-yl)urea], for which the pIC50 is less than 6.00.

For `Cc1cc2c(cc1NC(=O)NC(C)(C)C)O[C@H](C)C(=O)N2Cc1ccccc1` [Example 332, (R)-1-(4-benzyl-2,6-dimethyl-3-oxo-3,4-dihydro-2H-benzo[b][1,4]oxazin-7-yl)-3-(tert-butyl)urea], the pIC50 was 6.00 to 7.00.

For the molecule `C[C@H]1Oc2c(cc(F)c(NC(=O)NC(C)(C)C)c2F)N(Cc2cccc(OC(F)F)c2)C1=O` [Example 335, 3-tert-butyl-1-[(2R)-4-{[3-(difluoromethoxy)phenyl]methyl}-6,8-difluoro-2-methyl-3-oxo-2H-1,4-benzoxazin-7-yl]urea], the pIC50 is greater than 7.00.

Regarding `C[C@H]1Oc2c(cc(F)c(NC(=O)NC(C)(C)C)c2F)N(Cc2cccc(C(F)F)c2)C1=O` [Example 336, (R)-1-(tert-butyl)-3-(4-(3-(difluoromethyl)benzyl)-6,8-difluoro-2-methyl-3-oxo-3,4-dihydro-2H-benzo[b][1,4]oxazin-7-yl)urea], the pIC50 is greater than 7.00.
